Reference: patent US9580413B2, “Substituted pyrrolidines as ROS tyrosine kinase inhibitors” (NIPPON SHINYAKU CO., LTD., priority 2012, dated 2017)

How the values were obtained:
JAK2 tyrosine kinase = target: T1, JAK2 tyrosine kinase (Homo sapiens, UniProt O60674); test: JAK2 tyrosine kinase inhibitory activity test (ELISA); assay type: biochemical, humans; conditions: 25 μM ATP substrate solution, 30° C., one hour
T1 construct: purchased Carna Biosciences, Inc
Procedure: (§1) 1. Preparation of Test Substance:
(§2) A test substance was dissolved in dimethyl sulfoxide (DMSO) to 10 mM and further diluted with DMSO to concentrations of 100-fold of the concentrations to be measured (100, 10, 1, 0.1, and 0.01 μM). Furthermore, the resultant was diluted with an assay buffer to 20-fold, thereby preparing a solution as a test substance solution. A solution prepared by diluting DMSO with an assay buffer to 20-fold was used as a negative control. A buffer containing 15 mM Tris-Cl (pH 7.5), 0.01 (v/v) % Tween-20, and 1 mM dithiothreitol was used as the assay buffer.
(§3) 2. Measurement of ROS Tyrosine Kinase Activity and JAK2 Tyrosine Kinase Activity:
(§4) The activity was measured by adopting the ELISA method. […] Finally, an ROS kinase or a JAK2 kinase (derived from humans, Carna Biosciences, Inc.) (diluted with the assay buffer to 0.25 nM) was added to the plate at 20 μL per well, and the resulting mixture was stirred. A reaction was performed at 30° C. for one hour. After the plate was washed 4 times with a washing buffer (50 mM Tris-Cl (pH 7.5), 150 mM NaCl, and 0.02 (v/v) % Tween-20), a blocking buffer (0.1% bovine serum albumin, 50 mM Tris-Cl (pH 7.5), 150 mM NaCl, and 0.02 (v/v) % Tween-20) was added to the plate at 150 μL per well, and incubated at 30° C. for 30 minutes. The blocking buffer was then removed, and a horse radish peroxidase-labeled anti-phosphorylated tyrosine antibody (BD Biosciences, Inc.) (diluted with the blocking buffer to 10,000-fold) was added to the plate at 100 μL per well, and the plate was incubated at 30° C. for 30 minutes. After the plate was washed 4 times with the washing buffer, a 3,3′,5,5′-tetramethylbenzidine solution (Sigma-Aldrich Co., Ltd.) was added to the plate at 100 μL per well to develop the color for 10 minutes. The reaction was stopped by adding 0.1 M sulfuric acid at 100 μL per well. An absorbance at 450 nm was measured with a microplate reader (Model 3550, manufactured by BIO-RAD, Benchmark, manufactured by BIO-RAD, or iMARK, manufactured by BIO-RAD).
(§5) 3. Analysis of Measurement Results:
(§6) A non-linear regression analysis was performed for the measured absorbance with an SAS system (SAS Institute Inc.), and a concentration of each of the test substances of inhibiting the ROS tyrosine kinase activity or JAK2 tyrosine kinase activity at 50% (IC50) was calculated. The inhibitory activity (IC50, nM) of each of the test substances against the ROS tyrosine kinase or JAK2 tyrosine kinase is shown in Tables 6 to 8.

ROS tyrosine kinase = target: T2, ROS tyrosine kinase (Homo sapiens, UniProt P08922); test: ROS tyrosine kinase inhibitory activity test (ELISA); assay type: biochemical, humans; conditions: 25 μM ATP substrate solution, 30° C., one hour
T2 construct: purchased Carna Biosciences, Inc
T2 sequence (P08922 28-2347): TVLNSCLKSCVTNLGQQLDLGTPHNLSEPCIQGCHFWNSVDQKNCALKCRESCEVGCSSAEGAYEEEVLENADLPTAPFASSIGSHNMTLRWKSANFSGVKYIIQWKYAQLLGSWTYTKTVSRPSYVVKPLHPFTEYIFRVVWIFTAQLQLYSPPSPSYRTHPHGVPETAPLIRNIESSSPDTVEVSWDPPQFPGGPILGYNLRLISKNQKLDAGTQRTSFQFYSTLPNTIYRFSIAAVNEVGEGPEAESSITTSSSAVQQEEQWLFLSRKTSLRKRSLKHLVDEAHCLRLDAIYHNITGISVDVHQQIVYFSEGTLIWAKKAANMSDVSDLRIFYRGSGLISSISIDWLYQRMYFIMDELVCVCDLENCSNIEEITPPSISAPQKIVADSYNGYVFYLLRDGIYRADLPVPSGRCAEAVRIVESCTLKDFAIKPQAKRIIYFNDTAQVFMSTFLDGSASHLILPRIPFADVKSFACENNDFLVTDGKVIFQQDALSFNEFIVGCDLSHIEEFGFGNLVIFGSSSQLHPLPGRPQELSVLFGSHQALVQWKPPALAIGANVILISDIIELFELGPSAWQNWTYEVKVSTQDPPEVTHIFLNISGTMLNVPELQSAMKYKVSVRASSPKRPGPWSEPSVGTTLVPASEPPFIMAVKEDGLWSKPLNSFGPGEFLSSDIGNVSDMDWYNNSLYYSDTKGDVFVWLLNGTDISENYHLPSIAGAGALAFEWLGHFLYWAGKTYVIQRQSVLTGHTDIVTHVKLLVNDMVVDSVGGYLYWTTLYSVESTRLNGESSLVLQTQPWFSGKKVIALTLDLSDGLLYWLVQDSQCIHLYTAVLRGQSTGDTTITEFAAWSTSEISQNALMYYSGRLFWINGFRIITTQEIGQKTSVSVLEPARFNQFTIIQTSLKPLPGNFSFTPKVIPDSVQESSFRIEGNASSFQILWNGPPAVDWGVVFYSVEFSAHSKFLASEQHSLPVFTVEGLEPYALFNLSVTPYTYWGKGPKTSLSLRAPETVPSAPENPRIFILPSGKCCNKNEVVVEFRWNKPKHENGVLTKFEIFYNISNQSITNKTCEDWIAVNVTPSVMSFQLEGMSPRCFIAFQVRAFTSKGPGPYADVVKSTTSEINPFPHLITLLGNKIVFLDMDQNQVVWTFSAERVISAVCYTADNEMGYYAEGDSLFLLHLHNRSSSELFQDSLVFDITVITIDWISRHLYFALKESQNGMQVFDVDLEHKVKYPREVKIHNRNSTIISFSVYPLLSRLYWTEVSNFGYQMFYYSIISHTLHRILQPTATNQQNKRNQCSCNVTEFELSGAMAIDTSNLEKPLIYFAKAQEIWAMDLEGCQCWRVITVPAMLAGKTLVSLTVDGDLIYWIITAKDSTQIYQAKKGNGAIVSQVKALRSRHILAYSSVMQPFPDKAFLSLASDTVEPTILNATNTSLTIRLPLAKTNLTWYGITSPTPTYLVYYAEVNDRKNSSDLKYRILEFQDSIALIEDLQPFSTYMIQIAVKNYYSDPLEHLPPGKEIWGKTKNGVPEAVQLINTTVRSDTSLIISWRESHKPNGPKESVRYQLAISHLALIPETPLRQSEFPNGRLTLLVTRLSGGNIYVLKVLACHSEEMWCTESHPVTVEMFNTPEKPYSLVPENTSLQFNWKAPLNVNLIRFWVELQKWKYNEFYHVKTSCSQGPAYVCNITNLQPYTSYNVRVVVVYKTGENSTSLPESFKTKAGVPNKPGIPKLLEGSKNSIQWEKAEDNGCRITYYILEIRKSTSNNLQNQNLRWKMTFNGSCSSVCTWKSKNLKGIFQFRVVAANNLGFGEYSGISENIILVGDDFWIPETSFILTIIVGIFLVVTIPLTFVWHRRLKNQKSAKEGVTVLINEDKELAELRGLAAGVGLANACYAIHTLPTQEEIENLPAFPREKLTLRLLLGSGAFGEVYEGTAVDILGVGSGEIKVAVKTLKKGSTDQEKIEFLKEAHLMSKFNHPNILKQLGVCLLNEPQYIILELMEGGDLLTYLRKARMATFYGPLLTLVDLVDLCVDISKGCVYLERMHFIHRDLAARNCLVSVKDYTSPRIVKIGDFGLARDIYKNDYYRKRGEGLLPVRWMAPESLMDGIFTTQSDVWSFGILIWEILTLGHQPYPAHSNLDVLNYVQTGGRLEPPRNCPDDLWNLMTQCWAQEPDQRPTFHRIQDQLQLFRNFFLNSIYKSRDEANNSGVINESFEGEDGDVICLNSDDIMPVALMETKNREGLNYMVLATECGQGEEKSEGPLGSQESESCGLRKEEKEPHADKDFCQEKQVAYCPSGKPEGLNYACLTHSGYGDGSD
Procedure: as §1, §2, §3, §4, §5, §6

T1 sequence (O60674 whole entry): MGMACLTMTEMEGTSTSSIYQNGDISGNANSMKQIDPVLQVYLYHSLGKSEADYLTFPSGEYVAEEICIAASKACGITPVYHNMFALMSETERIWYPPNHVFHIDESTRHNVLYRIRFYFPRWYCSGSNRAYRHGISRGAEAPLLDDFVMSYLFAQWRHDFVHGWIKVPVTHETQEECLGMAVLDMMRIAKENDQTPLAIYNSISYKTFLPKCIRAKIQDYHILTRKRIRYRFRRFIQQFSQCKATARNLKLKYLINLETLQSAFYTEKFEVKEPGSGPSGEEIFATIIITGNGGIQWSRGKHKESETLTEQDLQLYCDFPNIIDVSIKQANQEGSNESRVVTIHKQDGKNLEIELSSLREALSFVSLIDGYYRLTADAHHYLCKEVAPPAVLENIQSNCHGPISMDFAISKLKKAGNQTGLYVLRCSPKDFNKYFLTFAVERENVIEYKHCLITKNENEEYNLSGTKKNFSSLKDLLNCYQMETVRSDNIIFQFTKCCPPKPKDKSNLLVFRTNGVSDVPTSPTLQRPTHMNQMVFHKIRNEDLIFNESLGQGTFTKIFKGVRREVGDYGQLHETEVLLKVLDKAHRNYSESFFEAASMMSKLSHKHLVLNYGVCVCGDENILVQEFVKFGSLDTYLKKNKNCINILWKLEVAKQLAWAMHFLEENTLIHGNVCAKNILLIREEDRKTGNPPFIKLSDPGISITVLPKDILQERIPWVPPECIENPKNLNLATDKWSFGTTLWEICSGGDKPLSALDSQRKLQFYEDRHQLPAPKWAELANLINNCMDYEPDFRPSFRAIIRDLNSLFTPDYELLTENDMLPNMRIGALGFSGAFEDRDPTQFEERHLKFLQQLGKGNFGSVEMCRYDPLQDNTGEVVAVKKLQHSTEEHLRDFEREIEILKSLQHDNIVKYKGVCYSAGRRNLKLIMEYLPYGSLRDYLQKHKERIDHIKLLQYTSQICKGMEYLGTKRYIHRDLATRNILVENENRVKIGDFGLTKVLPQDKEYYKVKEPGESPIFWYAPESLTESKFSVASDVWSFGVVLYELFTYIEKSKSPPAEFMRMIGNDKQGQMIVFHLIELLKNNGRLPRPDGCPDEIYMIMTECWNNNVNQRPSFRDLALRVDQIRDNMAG

SMILES | IC50 (JAK2 tyrosine kinase) [nM] | IC50 (ROS tyrosine kinase) [nM]
COc1cc(C)ccc1C1CCCN1c1cncc(Nc2ncc(C#N)s2)n1 (stereo not shown) [Example 30, 2-({6-[2-(2-Methoxy-4-methylphenyl)pyrrolidin-1-yl]pyrazin-2-yl}amino)-1,3-thiazole-5-carbonitrile] | 69 | 0.5
COc1cc(C2CCCN2c2cncc(Nc3ncc(C#N)s3)n2)ccc1C (stereo not shown) [Example 33, 2-({6-[2-(3-Methoxy-4-methylphenyl)pyrrolidin-1-yl]pyrazin-2-yl}amino)-1,3-thiazole-5-carbonitrile] | 190 | 2.2
COc1ccc(C2CCCN2c2cncc(Nc3ncc(C#N)s3)n2)cc1 (stereo not shown) [Example 37, 2-({6-[2-(4-Methoxyphenyl)pyrrolidin-1-yl]pyrazin-2-yl}amino)-1,3-thiazole-5-carbonitrile] | 560 | 13
COc1cccc(C2CCCN2c2cncc(Nc3ncc(C#N)s3)n2)c1 (stereo not shown) [Example 38, 2-({6-[2-(3-Methoxyphenyl)pyrrolidine-1-yl]pyrazin-2-yl}amino)-1,3-thiazole-5-carbonitrile] | 620 | 18
Cc1cccc(C2CCCN2c2cncc(Nc3ncc(C#N)s3)n2)c1 (stereo not shown) [Example 46, 2-({6-[2-(3-Methylphenyl)pyrrolidin-1-yl]pyrazin-2-yl}amino)-1,3-thiazole-5-carbonitrile] | 280 | 6.4
Cc1ccccc1C1CCCN1c1cncc(Nc2ncc(C#N)s2)n1 (stereo not shown) [Example 47, 2-({6-[2-(2-Methylphenyl)pyrrolidin-1-yl]pyrazin-2-yl}amino)-1,3-thiazole-5-carbonitrile] | 280 | 17
COc1c(Nc2ncc(C#N)s2)nc(N2CCCC2c2ccc(C)cc2)nc1-c1cccnc1F (stereo not shown) [Example 49, 2-({6-(2-Fluoropyridin-3-yl)-5-methoxy-2-[2-(4-methylphenyl)pyrrolidin-1-yl]pyrimidin-4-yl}amino)-1,3-thiazole-5-carbonitrile] | > 1000 | 52
Cc1ccc(C2CCCN2c2nc(C)c(C)c(Nc3ncc(C#N)s3)n2)cc1 (stereo not shown) [Example 52, 2-({5,6-Dimethyl-2-[2-(4-methylphenyl)pyrrolidin-1-yl]pyrimidin-4-yl}amino)-1,3-thiazole-5-carbonitrile] | 170 | 1.8
COCCn1cc(-c2nc(N3CCC[C@H]3c3ccc(C)cc3)nc(Nc3ncc(C#N)s3)c2OC)cn1 [Example 58, 2-({5-Methoxy-6-[1-(2-methoxyethyl)-1H-pyrazol-4-yl]-2-[(2S)-2-(4-methylphenyl)pyrrolidin-1-yl]pyrimidin-4-yl}amino)-1,3-thiazole-5-carbonitrile] | 240 | 2.2
Cc1ccc(C2CCCN2c2nc3c(c(Nc4ncc(C#N)s4)n2)CN(S(C)(=O)=O)CC3)cc1 (stereo not shown) [Example 72, 2-({2-[2-(4-Methylphenyl)pyrrolidin-1-yl]-6-(methylsulfonyl)-5,6,7,8-tetrahydropyrido[4,3-d]pyrimidin-4-yl}amino)-1,3-thiazole-5-carbonitrile] | > 1000 | 97

Further lines, results first:

IC50 (JAK2 tyrosine kinase) [nM] | IC50 (ROS tyrosine kinase) [nM] | SMILES
> 1000 | 8.8 | COc1cc(C)ccc1C1CCCN1c1cnc(C2CC2)c(Nc2ncc(C#N)s2)n1 (stereo not shown) [Example 23, 2-({3-Cyclopropyl-6-[2-(2-methoxy-4-methylphenyl)pyrrolidin-1-yl]pyrazin-2-yl}amino)-1,3-thiazole-5-carbonitrile]
210 | 6.6 | COc1ccccc1C1CCCN1c1cnc(C2CC2)c(Nc2ncc(C#N)s2)n1 (stereo not shown) [Example 24, 2-({3-Cyclopropyl-6-[2-(2-methoxyphenyl)pyrrolidin-1-yl]pyrazin-2-yl}amino)-1,3-thiazole-5-carbonitrile]
> 1000 | 26 | N#Cc1cnc(Nc2nc(N3CCCC3c3ccc(F)cc3)cnc2-c2ccoc2)s1 (stereo not shown) [Example 25, 2-({6-[2-(4-Fluorophenyl)pyrrolidin-1-yl]-3-(furan-3-yl)pyrazin-2-yl}amino)-1,3-thiazole-5-carbonitrile]
> 1000 | 51 | Cn1cc(-c2ncc(N3CCCC3c3ccc(F)cc3)nc2Nc2ncc(C#N)s2)cn1 (stereo not shown) [Example 28, 2-({6-[2-(4-Fluorophenyl)pyrrolidin-1-yl]-3-(1-methyl-1H-pyrazol-4-yl)pyrazin-2-yl}amino)-1,3-thiazole-5-carbonitrile]
390 | 5.3 | Cc1cnc(Nc2nc(N3CCCC3c3ccc(Cl)cc3)cnc2C2CC2)s1 (stereo not shown) [Example 31, 6-[2-(4-Chlorophenyl)pyrrolidin-1-yl]-3-cyclopropyl-N-(5-methyl-1,3-thiazol-2-yl)pyrazine-2-amine]
> 1000 | 2.9 | Cc1ccc([C@@H]2CCCN2c2cnc(C3CC3)c(Nc3ncc(C#N)s3)n2)cc1 [Example 35, 2-({3-Cyclopropyl-6-[(2S)-2-(4-methylphenyl)pyrrolidin-1-yl]pyrazin-2-yl}amino)-1,3-thiazole-5-carbonitrile]
240 | 1 | N#Cc1cnc(Nc2nc(N3CCC[C@H]3c3ccc(Cl)cc3)cnc2C2CC2)s1 [Example 36, 2-({6-[(2S)-2-(4-Chlorophenyl)pyrrolidin-1-yl]-3-cyclopropylpyrazin-2-yl}amino)-1,3-thiazole-5-carbonitrile]
230 | 2.1 | N#Cc1cnc(Nc2nc(N3CCCC3c3ccc(F)cc3)cnc2C2CC2)s1 (stereo not shown) [Example 40, 2-({3-Cyclopropyl-6-[2-(4-fluorophenyl)pyrrolidin-1-yl]pyrazin-2-yl}amino)-1,3-thiazole-5-carbonitrile]
21 | 0.71 | Cc1ncc(N2CCCC2c2ccc(F)cc2)nc1Nc1ncc(C#N)s1 (stereo not shown) [Example 41, 2-({6-[2-(4-Fluorophenyl)pyrrolidin-1-yl]-3-methylpyrazin-2-yl}amino)-1,3-thiazole-5-carbonitrile]
100 | 1.6 | Cc1ncc(N2CCCC2c2ccc(Cl)cc2)nc1Nc1ncc(C#N)s1 (stereo not shown) [Example 42, 2-({6-[2-(4-Chlorophenyl)pyrrolidin-1-yl]-3-methylpyrazin-2-yl}amino)-1,3-thiazole-5-carbonitrile]
≥ 1000 | 13 | Cc1nc(C2CC2)c(Nc2ncc(C#N)s2)nc1N1CCCC1c1ccc(Cl)cc1 (stereo not shown) [Example 44, 2-({6-[2-(4-Chlorophenyl)pyrrolidin-1-yl]-3-cyclopropyl-5-methylpyrazin-2-yl}amino)-1,3-thiazole-5-carbonitrile]
> 1000 | 67 | Cc1cc(-c2ncc(N3CCCC3c3ccc(F)cc3)nc2Nc2ncc(C#N)s2)ccn1 (stereo not shown) [Example 53, 2-({6-[2-(4-Fluorophenyl)pyrrolidin-1-yl]-3-(2-methylpyridin-4-yl)pyrazin-2-yl}amino)-1,3-thiazole-5-carbonitrile]
910 | 0.84 | Cc1ccc([C@@H]2CCCN2c2cc(C(N)=O)c(C3CC3)c(Nc3ncc(C#N)s3)n2)cc1 [Example 66, 2-[(5-Cyano-1,3-thiazol-2-yl)amino]-3-cyclopropyl-6-[(2S)-2-(4-methylphenyl)pyrrolidin-1-yl]pyridine-4-carboxamide]
